# In patent US11278555B2, “Combinational therapies for treatment of cancer comprising a bacteriochlorophyll derivative” (Yeda Research and Development Co. Ltd., priority 2016, dated 2022):
# Key:
# [1] = tested on: 4T1-luc tumors at the mammary pad; experiment: WST11 VTP combined with CTX or Gemzar in mice bearing 4T1-luc tumors in the mammary pad (Scheme 5); type: in vivo, Balb/C mice; conditions: VTP alone, 9 mg/kg WST11, 200 mW/cm^2 for 15 min
# Description: • (i) Bacteriochlorophyll Derivatives—The Bchl derivatives and RGD-conjugates thereof were provided by Steba Biotech (Rehovot, Israel). […] Concentration was verified by spectrophotometric measurement. STL-7012 was provided as dipotassium salt. Working solution was prepared by dissolving STL-7012 K^+ salt in 5% mannitol solution (1 mg/ml). […] WST11 was supplied as a powder and kept in the dark at −20° C. Stock was prepared by dissolving WST11 in DDW containing 5% glucose and 0.67% mannitol, aliquoted and lyophilized. Working solution was reconstituted with DDW and the concentration of solution was confirmed spectrophotometrically. Alternatively, Clinical WST11 (batch: P00611, and 10-130611) was supplied as lyophilized formulation. Material was dissolved in 5% dextrose, aliquoted and stored at −20° C. […] Whole body imaging of luciferase-transfected tumors and metastases were recorded five minutes following 75 mg Kg^−1 intraperitoneal (i.p.) injection of D-luciferin with respective filter sets. • (vi) PDT treatment protocol: 4T1-Luc cells were grafted in the mammary pad of Balb/c mice. […]
# [2] = tested on: CD8, Treg, Teff and TCM T cell populations; experiment: Adaptive immune response (T cell populations) of mice bearing MB49 tumors; type: in vivo
# Description: • (i) Bacteriochlorophyll Derivatives—The Bchl derivatives and RGD-conjugates thereof were provided by Steba Biotech (Rehovot, Israel). […] Concentration was verified by spectrophotometric measurement. STL-7012 was provided as dipotassium salt. Working solution was prepared by dissolving STL-7012 K^+ salt in 5% mannitol solution (1 mg/ml). […] WST11 was supplied as a powder and kept in the dark at −20° C. Stock was prepared by dissolving WST11 in DDW containing 5% glucose and 0.67% mannitol, aliquoted and lyophilized. Working solution was reconstituted with DDW and the concentration of solution was confirmed spectrophotometrically. Alternatively, Clinical WST11 (batch: P00611, and 10-130611) was supplied as lyophilized formulation. Material was dissolved in 5% dextrose, aliquoted and stored at −20° C. At the day of treatment the aliquot was thawed, filtered and the concentration of solution was confirmed spectrophotometrically. • (ii) Chemotherapeutic drugs preparation and storage—Gemcitabine (GEM, Gemzar®, Lilly) was purchased from a local pharmacy as a powder, dissolved in saline to a concentration of 38 mg/ml, aliquoted and stored at −20° C. Aliquots were thawed, diluted with saline to a desired concentration and used on the same day at a dose of 75 mg/kg. Cyclophosphamide (CTX, Endoxan®, Baxter Oncology Gmbh, Germany) was purchased from a local pharmacy. A stock solution of 20 mg/ml was prepared by dissolving in 0.9% NaCl, aliquoted and stored at −20° C. […] Whole body imaging of luciferase-transfected tumors and metastases were recorded five minutes following 75 mg Kg^−1 intraperitoneal (i.p.) injection of D-luciferin with respective filter sets. • (vi) PDT treatment protocol: 4T1-Luc cells were grafted in the mammary pad of Balb/c mice. […]
# [3] = tested on: orthotopic 4T1-Luc tumors; experiment: STL-6014 PDT and metronomic Gemzar in mice bearing 4T1-Luc tumors in the mammary pad (Scheme 1): primary tumor, survival, lung metastases, re-challenge; type: in vivo, Balb/c mice
# Description: • (i) Bacteriochlorophyll Derivatives—The Bchl derivatives and RGD-conjugates thereof were provided by Steba Biotech (Rehovot, Israel). […] Concentration was verified by spectrophotometric measurement. STL-7012 was provided as dipotassium salt. Working solution was prepared by dissolving STL-7012 K^+ salt in 5% mannitol solution (1 mg/ml). […] WST11 was supplied as a powder and kept in the dark at −20° C. Stock was prepared by dissolving WST11 in DDW containing 5% glucose and 0.67% mannitol, aliquoted and lyophilized. Working solution was reconstituted with DDW and the concentration of solution was confirmed spectrophotometrically. Alternatively, Clinical WST11 (batch: P00611, and 10-130611) was supplied as lyophilized formulation. Material was dissolved in 5% dextrose, aliquoted and stored at −20° C. At the day of treatment the aliquot was thawed, filtered and the concentration of solution was confirmed spectrophotometrically. • (ii) Chemotherapeutic drugs preparation and storage—Gemcitabine (GEM, Gemzar®, Lilly) was purchased from a local pharmacy as a powder, dissolved in saline to a concentration of 38 mg/ml, aliquoted and stored at −20° C. Aliquots were thawed, diluted with saline to a desired concentration and used on the same day at a dose of 75 mg/kg. Cyclophosphamide (CTX, Endoxan®, Baxter Oncology Gmbh, Germany) was purchased from a local pharmacy. A stock solution of 20 mg/ml was prepared by dissolving in 0.9% NaCl, aliquoted and stored at −20° C. Aliquots were thawed, diluted with saline if needed to a desired concentration and used on the same day prepared at indicated doses. • (iii) Murine cell lines—Mammary luciferase (luc)-labeled 4T1 cell line (4T1-Luc) was a kind gift from Dr. Zvi Granot (Faculty of Medicine, The Hebrew University of Jerusalem, Israel); melanoma B16-F10 cell line was obtained from the American Type Culture Collection (ATCC, Manassas, Va.); bladder MB49 cell line was a kind gift from James Allison (MSKCC, New York, USA), and luc-labeled MB49-cell line was established using the murine stem cell virus (MSCV)-puromycin-luc-GFP construct (kindly provided by Dr. Emily Cheng, Human Oncology and Pathogenesis Program, MSKCC). 4T1 and MB49 cells were maintained in DMEM medium and B16-F10 cells in RPMI medium supplemented with 1 mmol/L sodium pyruvate, 10% fetal calf serum (FCS), 250 μg/ml hygromycin, 0.06 mg/ml penicillin and 0.1 mg/ml streptomycin. The cells were grown as monolayer at 37° C. in a humidified atmosphere (5% CO2, 95% air). • (iv) Murine tumor models—Female, Balb/c mice (6-8 week old) were grafted either subcutaneously (s.c.) into the right hind leg or orthotopically with 1×10^6 4T1 cells suspended in 50 or 1000 PBS. For the rechallenge study, 2×10^5 4T1 cells were orthotopically grafted. For bladder cancer model, 5×10^4 of MB49 or MB49-luciferase cell line were s.c. injected into the right flank of C57B/6 male mice (7-8 weeks old, Taconic, Hudson, N.Y.) 15 days prior to VTP treatment. For the efficacy study of VTP in immune compromised mice, the same number of MB49 cells was injected in the flank of Rag^−/− on C57B/6 background or C57B/6 male mice (7-8 week old, Jackson Laboratory, Bar Harbor, Me.). […] Whole body imaging of luciferase-transfected tumors and metastases were recorded five minutes following 75 mg Kg^−1 intraperitoneal (i.p.) injection of D-luciferin with respective filter sets. • (vi) PDT treatment protocol: 4T1-Luc cells were grafted in the mammary pad of Balb/c mice. […]
# [4] = 120 days follow up, monotherapy
smiles,measurement,setting,value
"CCC1c2cc3[n-]c(c(CC(=O)OC)c4nc(cc5[n-]c(cc(n2)C1C)c(C(C)=O)c5C)C(C)C4CCC(=O)[O-])c(C(=O)NCCS(=O)(=O)[O-])c3C.[K+].[K+].[Pd+2] (stereo not shown) [WST11, Palladium 3^1-oxo-15-methoxycarbonylmethyl-rhodobacteriochlorin 13^1-(2-sulfoethyl) amide dipotassium salt]",survival,[1],very limited survival
same,"CD8 cell population in the spleen, blood and draining lymph nodes",[2]; 6 days post treatment,significant elevation
same,"Treg populations (spleen, blood, lymph nodes)",[2]; 6 days post treatment,no significant effect
same,CD8 Tcell/Treg ratio,[2]; day 6 post VTP,no increase
"Nc1ccn([C@@H]2O[C@H](CO)[C@@H](O)C2(F)F)c(=O)n1 [Gemzar, Gemcitabine]",primary tumor cure,[3]; [4],no primary tumor cure
same,survival compared to control (Kaplan-Meier),[3]; [4],Extended mice survival
same,primary cure,"[3]; Gemzar only, 75 mg/kg i.p. metronomic",0%
